Measured values from PubChem BioAssay (NCI).
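Cultured in 96-well plates, cells were exposed to test compound for 48 hours across five concentrations. Here, GI50 denotes the concentration required for 50% inhibition of growth. TGI denotes the concentration required for complete inhibition of growth.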

What was measured:
Test in all cases: DTP human tumour cell line panel, 48 h
MOLT-4 leukemia = test system: MOLT-4 leukemia
SN12C renal = test system: SN12C renal
A549 NSCLC = test system: A549 NSCLC
SK-OV-3 ovarian = test system: SK-OV-3 ovarian
U251 CNS = test system: U251 CNS
UACC-257 melanoma = test system: UACC-257 melanoma
ACHN renal = test system: ACHN renal
UO-31 renal = test system: UO-31 renal
SR leukemia = test system: SR leukemia
UACC-62 melanoma = test system: UACC-62 melanoma

Compound	GI50 (MOLT-4 leukemia) [µM]	TGI (MOLT-4 leukemia) [µM]	GI50 (SN12C renal) [µM]	TGI (SN12C renal) [µM]	GI50 (A549 NSCLC) [µM]	TGI (A549 NSCLC) [µM]	GI50 (SK-OV-3 ovarian) [µM]	TGI (SK-OV-3 ovarian) [µM]	GI50 (U251 CNS) [µM]	TGI (U251 CNS) [µM]	GI50 (UACC-257 melanoma) [µM]	TGI (UACC-257 melanoma) [µM]	GI50 (ACHN renal) [µM]	TGI (ACHN renal) [µM]	GI50 (UO-31 renal) [µM]	TGI (UO-31 renal) [µM]	GI50 (SR leukemia) [µM]	TGI (SR leukemia) [µM]	GI50 (UACC-62 melanoma) [µM]	TGI (UACC-62 melanoma) [µM]
CCOC(=O)c1cc2c(n1Cc1cc(OC)cc(OC)c1)-c1oncc1CC2	0.525	> 100	0.994	> 100	0.27	> 100	0.309	> 100	0.262	> 100	47	> 100	2.22	> 100	6.37	> 100	0.0475	> 36.8	0.403	> 100
O=C(O)c1[nH]c2c([N+](=O)[O-])cc([N+](=O)[O-])cc2c1C(=O)O	–	> 100	–	> 100	–	> 100	–	> 100	–	> 100	–	> 100	–	> 100	–	> 100	–	> 100	–	> 100
NS(=O)(=O)c1cc(C(=O)O)c(Cl)c([N+](=O)[O-])c1Cl	–	> 100	–	> 100	–	> 100	–	> 100	–	> 100	–	> 100	–	> 100	–	> 100	–	> 100	–	> 100
Cn1cc(-c2nc(-c3cn(C)c4ncccc34)cs2)c2ccccc21	4.65	> 100	4.76	> 100	1.43	> 100	1.98	5.31	1.53	11.4	3.61	> 100	3.67	79.4	4.93	> 100	0.703	> 100	1.35	> 100
CN(C)C/C=C/C(=O)Nc1cc2c(Nc3cccc(Cl)c3F)ncnc2cc1OCCOC(F)F	1.42	6.18	0.317	7.15	1.24	12.7	< 0.01	0.275	2.39	12.1	3.59	15.5	< 0.01	10.7	< 0.0187	6.14	1.18	5.22	1.86	11.1
CCC(C)C(=O)OC1CCC=C2C=CC(C)C(CCC3CC(O)CC(=O)O3)C21 (stereo not given)	–	> 100	–	> 100	–	> 100	–	> 100	–	> 100	–	> 100	–	> 88	–	> 100	–	> 51	–	> 100
C=C1C(=O)O[C@H]2[C@H]1CC/C(COC(=O)N[C@H](Cc1c[nH]c3ccccc13)C(=O)OC)=C\CC[C@@]1(C)O[C@@H]21	2.5	7.54	2.08	5.69	14.9	32.7	13.4	26.4	10	22.1	2.89	8.74	1.78	4.22	1.49	2.84	2.58	10.5	1.88	4.4
OCC1OC(n2cnc3c(NCc4ccccc4O)ncnc32)C(O)C1O (stereo not given)	0.596	> 38	0.178	20	26.5	> 100	0.627	26.1	1.16	> 100	> 83.6	> 100	0.327	> 44.4	0.717	13.8	0.413	> 29.3	1.27	24.2
O=C1CCc2ccc(O)c(c2)Oc2ccc(cc2)[C@@H]2O[C@@H]2CO1	–	> 100	–	> 100	–	> 100	–	> 100	–	> 100	–	> 100	–	> 100	–	> 100	–	> 100	–	> 100
C[C@@H](Oc1cc(-c2cnn(C3CCNCC3)c2)cnc1N)c1c(Cl)cc(F)cc1Cl	0.866	7.71	1.95	13.3	1.14	11.3	3.26	10.8	1.93	7.65	1.49	3.07	2.61	12	3.16	13.2	0.0497	1.52	1.61	3.65
